Source: patent US20180099931A1 (AbbVie S.à.r.l., priority 2016, published 2018)
Read-outs that look alike come from different tables or passages of the source.

Molecular target: T1, F508delCFTR (Homo sapiens, UniProt P13569, DEL508-508)
T1 construct: expressed in transfected cells; host or cells: CFBE41o- human lung-derived epithelial cells (CFBE4lo-F508delCFTR-HRP), doxycycline-inducible
Assay: Cell Surface Expression-Horse Radish Peroxidase (CSE-HRP) Assay;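 as to Maximum % activity (with co-corrector): co-corrector and positive control are both the same reference corrector at 2 µM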;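 as to Maximum % activity (without co-corrector): percent of the 2 µM on-plate positive control corrector response above DMSO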
Format: cell-based
Conditions: for Maximum % activity (with co-corrector) / Emax: maximum at any tested concentration, normalized to on-plate positive control; for Emax: read-out: Maximum % activity (without co-corrector)

[1] = CSE-HRP, test compound without co-corrector, read-out: EC50 (without co-corrector)
[2] = CSE-HRP, with co-corrector (2 μM of 3-[(2R,4R)-4-({[1-(2,2-difluoro-1,3-benzodioxol-5-yl)cyclopropyl]carbonyl}amino)-7-methoxy-3,4-dihydro-2H-chromen-2-yl]benzoic acid), read-out: EC50 (with co-corrector)
[3] = CSE-HRP, with co-corrector (2 μM)
[4] = test compound without co-corrector, read-out: EC50 (without co-corrector)
[5] = with co-corrector (2 μM of 3-[(2R,4R)-4-({[1-(2,2-difluoro-1,3-benzodioxol-5-yl)cyclopropyl]carbonyl}amino)-7-methoxy-3,4-dihydro-2H-chromen-2-yl]benzoic acid), read-out: EC50 (with co-corrector)
[6] = test compound without co-corrector
[7] = with co-corrector (2 μM of 3-[(2R,4R)-4-({[1-(2,2-difluoro-1,3-benzodioxol-5-yl)cyclopropyl]carbonyl}amino)-7-methoxy-3,4-dihydro-2H-chromen-2-yl]benzoic acid)

T1 sequence (P13569 with tags, fused parts or gaps DEL508-508): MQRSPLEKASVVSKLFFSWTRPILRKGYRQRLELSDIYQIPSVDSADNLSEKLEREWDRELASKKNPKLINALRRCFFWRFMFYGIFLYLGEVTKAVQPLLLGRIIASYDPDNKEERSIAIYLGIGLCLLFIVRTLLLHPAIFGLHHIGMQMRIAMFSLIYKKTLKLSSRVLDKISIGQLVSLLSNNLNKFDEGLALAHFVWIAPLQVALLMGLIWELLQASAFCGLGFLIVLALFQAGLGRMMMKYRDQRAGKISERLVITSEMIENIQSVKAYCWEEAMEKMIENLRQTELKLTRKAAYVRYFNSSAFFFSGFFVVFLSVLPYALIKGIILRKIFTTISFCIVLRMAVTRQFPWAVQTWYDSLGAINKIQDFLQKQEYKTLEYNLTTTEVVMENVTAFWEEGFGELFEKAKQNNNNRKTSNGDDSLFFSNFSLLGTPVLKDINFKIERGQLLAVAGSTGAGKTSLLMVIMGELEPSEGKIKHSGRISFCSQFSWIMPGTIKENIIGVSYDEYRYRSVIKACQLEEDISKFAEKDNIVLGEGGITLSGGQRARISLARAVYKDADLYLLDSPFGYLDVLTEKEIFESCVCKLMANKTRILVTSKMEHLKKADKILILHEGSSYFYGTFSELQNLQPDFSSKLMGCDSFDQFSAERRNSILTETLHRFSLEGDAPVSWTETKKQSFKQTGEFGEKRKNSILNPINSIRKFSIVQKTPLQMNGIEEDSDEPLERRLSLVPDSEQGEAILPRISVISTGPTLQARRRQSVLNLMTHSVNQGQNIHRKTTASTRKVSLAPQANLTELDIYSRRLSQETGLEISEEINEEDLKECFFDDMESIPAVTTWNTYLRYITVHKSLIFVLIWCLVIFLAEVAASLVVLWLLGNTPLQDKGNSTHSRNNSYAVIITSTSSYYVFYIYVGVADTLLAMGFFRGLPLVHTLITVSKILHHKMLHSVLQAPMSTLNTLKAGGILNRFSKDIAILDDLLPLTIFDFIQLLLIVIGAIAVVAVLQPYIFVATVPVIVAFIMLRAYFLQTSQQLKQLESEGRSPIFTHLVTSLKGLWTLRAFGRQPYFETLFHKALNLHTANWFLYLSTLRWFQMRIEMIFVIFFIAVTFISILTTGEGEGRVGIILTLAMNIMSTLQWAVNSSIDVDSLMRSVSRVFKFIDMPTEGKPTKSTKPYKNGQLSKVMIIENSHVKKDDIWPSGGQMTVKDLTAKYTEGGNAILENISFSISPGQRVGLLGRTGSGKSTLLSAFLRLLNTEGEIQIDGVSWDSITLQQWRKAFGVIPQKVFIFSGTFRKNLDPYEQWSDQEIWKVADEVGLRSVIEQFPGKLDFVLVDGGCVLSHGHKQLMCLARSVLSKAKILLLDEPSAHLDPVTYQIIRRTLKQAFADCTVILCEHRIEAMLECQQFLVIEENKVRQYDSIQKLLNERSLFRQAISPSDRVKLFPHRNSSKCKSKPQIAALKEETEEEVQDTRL

| EC50 [1] | EC50 [2] | Maximum % activity (with co-corrector) [3] | Emax (CSE-HRP, without co-corrector) | EC50 [4] | EC50 [5] | Maximum % activity (with co-corrector) (with co-corrector (2 μM)) | Emax (without co-corrector) | Emax [6] | Maximum % activity (with co-corrector) [7] | SMILES |
| --- | --- | --- | --- | --- | --- | --- | --- | --- | --- | --- |
| < 1000 nM | < 1000 nM | +++ (≥350) | > 200% |  |  |  |  |  |  | COc1ccc(-c2cccc(F)c2F)cc1CN[C@H]1[C@H](C(C)(C)C)[C@@H](C(=O)O)N(C(=O)C2CCCCC2)[C@H]1c1ccccc1 [II-286] |
| 1000 to 10000 nM | 1000 to 10000 nM | +++ (≥350) | 100 to 200% |  |  |  |  |  |  | COc1cc(C(F)(F)F)ccc1CN[C@@H]1[C@@H](C(C)(C)C)[C@H](C(=O)O)N(C(=O)C(C)c2ccccc2)[C@@H]1c1ccccc1 (single isomer, unassigned) [II-80] |
|  |  |  |  | 1000 to 10000 nM | < 1000 nM | +++ (≥350) | > 200% |  |  | COc1ccc(C(C)(C)C)cc1CN[C@H]1[C@H](C(C)(C)C)[C@@H](C(=O)O)N(C(=O)[C@H]2COc3ccccc3O2)[C@H]1c1ccccc1 [Example I-167] |
|  |  |  |  | 1000 to 10000 nM | 1000 to 10000 nM |  |  | > 200% | +++ (≥350) | COC(=O)N1[C@H](C(=O)O)[C@@H](C(C)(C)C)[C@H](NCc2cc(C(C)(C)C)ccc2OC)[C@@H]1c1ccccc1 [II-388] |
| 1000 to 10000 nM | 1000 to 10000 nM | ++ (≥150 and <350) | < 100% |  |  |  |  |  |  | COc1cc(C(F)(F)F)ccc1CN[C@@H]1[C@@H](C(C)(C)C)[C@H](C(=O)O)N(C(=O)C2CCC(F)(F)CC2)[C@@H]1c1ccccc1 (racemic) [II-69] |
|  |  |  |  | 1000 to 10000 nM | < 1000 nM |  |  | > 200% | +++ (≥350) | COc1ccc(C(C)(C)C)cc1CN[C@H]1[C@H](C(C)(C)C)[C@@H](C(=O)O)N(C(=O)[C@H](C)Oc2ccccc2)[C@H]1c1ccccc1 [II-319] |
|  |  |  |  | 1000 to 10000 nM | 1000 to 10000 nM |  |  | < 100% | ++ (≥150 and <350) | COc1ncc(CN[C@@H]2[C@@H](C(C)(C)C)[C@H](C(=O)O)N(C(=O)C3CCCCC3)[C@@H]2c2ccccc2)c(OC)n1 (racemic) [III-29] |
|  |  |  |  | > 10000 nM | < 1000 nM |  |  | < 100% | ++ (≥150 and <350) | COc1ccc(C(C)(C)C)cc1CN[C@H]1[C@H](C(C)(C)C)[C@@H](C(=O)O)N(C(=O)C2COc3ccccc3O2)[C@H]1c1cccnc1N(C)C (single isomer, unassigned) [II-471] |
|  |  |  |  | 1000 to 10000 nM | 1000 to 10000 nM | +++ (≥350) | > 200% |  |  | COc1ccc(C(C)(C)C)cc1CN[C@H]1[C@H](C(C)(C)C)[C@@H](C(=O)O)N(C(=O)[C@@H]2CCCN(C(=O)OC(C)C)C2)[C@H]1c1ccccc1 [Example I-246, (2S,3S,4S,5S)-3-tert-butyl-4-{[(5-tert-butyl-2-methoxyphenyl)methyl]amino}-5-phenyl-1-[(3R)-1-{[(propan-2-yl)oxy]carbonyl}piperidine-3-carbonyl]pyrrolidine-2-carboxylic acid] |
|  |  |  |  | 1000 to 10000 nM | 1000 to 10000 nM |  |  | < 100% | ++ (≥150 and <350) | CC(C)(C)[C@@H]1[C@@H](NCc2cccnc2N2CCOCC2)[C@@H](c2ccccc2)N(C(=O)C2CCCCC2)[C@H]1C(=O)O (racemic) [III-28] |
|  |  |  |  | < 1000 nM | < 1000 nM | +++ (≥350) | > 200% |  |  | COc1ncc(C(F)(F)F)cc1CN[C@H]1[C@H](C(C)(C)C)[C@@H](C(=O)O)N(C(=O)[C@@H]2CCCO2)[C@H]1c1ccccc1C(C)C [Example 95, (2S,3S,4S,5S)-3-tert-butyl-4-({[2-methoxy-5-(trifluoromethyl)pyridin-3-yl]methyl}amino)-1-[(2S)-oxolane-2-carbonyl]-5-[2-(propan-2-yl)phenyl]pyrrolidine-2-carboxylic acid] |
|  |  |  |  | 1000 to 10000 nM | < 1000 nM |  |  | > 200% | +++ (≥350) | COc1ncc(C(F)(F)F)cc1CN[C@H]1[C@H](C(C)(C)C)[C@@H](C(=O)O)N(C(=O)C2CCOCC2)[C@H]1c1ccccc1C(C)C [II-591] |
